{"source": "patent US5750550A", "about": "“2-(pyrazol-5-yl-oxymethyl)-1,2-benzisothiazol-3 (2H)-One 1, 1-dioxides and compositions and method of use thereof” (Sanofi, priority 1995, dated 1998)", "data": [{"biological_target": "T1, human leukocyte elastase (Homo sapiens, UniProt P08246)", "T1 sequence (P08246 30-267)": "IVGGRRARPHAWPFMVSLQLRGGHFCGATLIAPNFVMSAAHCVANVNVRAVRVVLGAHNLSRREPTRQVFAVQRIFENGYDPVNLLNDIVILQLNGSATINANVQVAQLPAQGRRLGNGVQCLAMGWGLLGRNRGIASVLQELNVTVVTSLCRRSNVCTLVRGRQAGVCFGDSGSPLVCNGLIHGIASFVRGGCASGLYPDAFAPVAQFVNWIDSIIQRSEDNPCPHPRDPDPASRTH", "assay": "human leukocyte elastase (HLE) inhibitory activity, substrate MeOSuc-Ala-Ala-Pro-Val-pNA", "type": "biochemical", "conditions": "pH 7.8, 25° C., steady-state velocities", "protocol": "The test compound (inhibitor) is dissolved in DMSO in a vial to produce an inhibitor stock solution which has a concentration in the range of 200-1000 μM. The inhibitor stock solution is diluted (1:4, 1:16 and 1:64) into assay vials (vials 1, 2 and 3 respectively) containing 2.4 mL of buffer solution (50 mM N-[2-hydroxyethyl] piperazine-N'-[2-ethanesulfonic acid]/NaOH, 500 mM NaCl, pH 7.8 at 25° C.) and DMSO is added so that the total volume in each vial is 3.2 mL. 70 μL, 50 μL, 35 μL and 25 μL of inhibitor from assay vial 1 is placed into the first four wells of a 96-well microtiter plate and each well is made up to 90 μL total volume with the addition of a 25% DMSO/buffer solution. The inhibitor from assay vials 2 and 3 is processed in a similar manner and placed in wells 5-12 respectively to afford a total of 12 different inhibitor concentrations. Four wells (wells 13-16) containing 90 μL of the 25% DMSO/buffer solution but no inhibitor are also run simultaneously with the inhibited wells as a control. 150 μL of substrate solution (prepared by the addition of 500 μL of the human leukocyte elastase (HLE) substrate MeOSuc-Ala-Ala-Pro-Val-pNA (18.7 mM in DMSO) to 19.5 mL of buffer solution) is then added simultaneously into each of the 16 wells and the solution in each well was thoroughly mixed.\nThe 96-well microtiter plate is placed into a Microplate Reader #89815A spectrophotometer and 110 μL of the enzyme solution (prepared as follows: a mixture of 20 mL of buffer solution and 20 mg of bovine serum albumen is gently vortexed in a scintillation vial and 5 μL HLE stock solution (1 mg/mL dissolved in deionized water) is added) is added simultaneously to each of the 16 wells. Each of the solutions in the wells is throughly mixed and then the time-dependent absorbance data is collected at an absorbance of 410 nm until the assay is complete. It should be noted that although this assay method can be done manually, it is preferred to perform the assay robotically using a Hewlett Packard MicroAssay System Robot. the absorbance versus time data thus obtained affords curves the final slope of which is equal to the final steady-statevelocities (VF). Using the program ENZFITTER (Elsevier software), the progress curves for the four control assays ([I]=0 are fit by linear regression to yield the enzyme reaction velocity values in the absences of inhibitor (Vo) which are averaged to produce a single fixed value. The inhibition constant Ki (nM) is then obtained from a plot of [formula] which affords a linear plot wherein: [formula] and [S] is the concentration of the substrate and Km is the Michaelis constant.\nTable I summarizes the results obtained from the testing of compounds of the invention for human leukocyte elastase inhibitory activity.", "units": {"Ki": "nM"}, "values": [{"molecule": "COc1cc(C(C)C)c2c(c1)S(=O)(=O)N(COc1cc(C)nn1C)C2=O", "note": "[Example 1, 4-isopropyl-6-methoxy-2-(1,3-dimethylpyrazol-5-yl-oxymethyl)-1,2-benzisothiazol-3(2H)-one 1,1-dioxide]", "Ki": 0.73}, {"molecule": "COc1cc(C(C)C)c2c(c1)S(=O)(=O)N(COc1cc(C(F)(F)F)nn1-c1ccc3ccccc3n1)C2=O", "note": "[27 (b), 4-isopropyl-6-methoxy-2-[1-(2-quinolinyl)-3-(trifluoromethyl)pyrazol-5-yl-oxymethyl]-1,2-benzisothiazol-3(2H)-one 1,1-dioxide]", "Ki": 0.15}, {"molecule": "COc1cc(C(C)C)c2c(c1)S(=O)(=O)N(COc1cc(C#N)nn1-c1ccc(Cl)cc1)C2=O", "note": "[Example 46, 4-isopropyl-6-methoxy-2-[1-(4-chlorophenyl)-3-cyanopyrazol-5-yl-oxymethyl]-1,2-benzisothiazol-3(2H)-one 1,1-dioxide]", "Ki": 0.19}, {"molecule": "COc1cc(C(C)C)c2c(c1)S(=O)(=O)N(COc1cc(C(F)(F)F)nn1-c1ccccc1Cl)C2=O", "note": "[30 (b), 4-isopropyl-6-methoxy-2-[1-(2-chlorophenyl)-3-trifluoromethylpyrazol-5-yl-oxymethyl]-1,2-benzisothiazol-3(2H)-one 1,1-dioxide]", "Ki": 0.07}, {"molecule": "CC(C)c1cc(OCCCC(=O)O)cc2c1C(=O)N(COc1cc(C(F)(F)F)nn1-c1ccccc1)S2(=O)=O", "note": "[17 (b), 4-isopropyl-6-[3-(carboxy)propoxy]-2-(1-phenyl-3-trifluoromethylpyrazol-5-yl-oxymethyl)-1,2-benzisothiazol-3(2H)-one 1,1-dioxide]", "Ki": 0.036}, {"molecule": "COc1cc(C(C)C)c2c(c1)S(=O)(=O)N(COc1cc(C(F)(F)F)nn1-c1ccc(Cl)nn1)C2=O", "note": "[32 (c), 4-isopropyl-6-methoxy-2-[1-(3-chloropyridazin-6-yl)-3-trifluoromethylpyrazol-5-yl-oxymethyl]-1,2-benzisothiazol-3(2H)-one 1,1-dioxide]", "Ki": 0.055}, {"molecule": "CCOC(=O)c1cc(OCN2C(=O)c3c(C(C)C)cc(OC)cc3S2(=O)=O)n(-c2ccccc2)n1", "note": "[Example 12, 4-isopropyl-6-methoxy-2-(1-phenyl-3-ethoxycarbonylpyrazol-5-yl-oxymethyl)-1,2-benzisothiazol-3(2H)-one 1,1-dioxide]", "Ki": 0.077}, {"molecule": "CC(C)c1cc(O)cc2c1C(=O)N(COc1cc(C(F)(F)F)nn1-c1ccccc1)S2(=O)=O", "note": "[Example 9, 4-iso-ropyl-6-hydroxy-2-(1-phenyl-3-trifluoromethylpyrazol-5-yl-oxymethyl)-1,2-benzisothiazol-3(2H)-one 1,1-dioxide]", "Ki": 0.78}, {"molecule": "COc1cc(C(C)C)c2c(c1)S(=O)(=O)N(COc1cc(C(F)(F)F)nn1-c1ncc(Cl)cc1C(F)(F)F)C2=O", "note": "[34 (b), 4-isopropyyl-6-methoxy-2-[1-(5-chloro-3-trifluoromethyl-2-pyridyl)-3-trifluoromethylpyrazol-5-yl-oxymethyl]-1,2-benzisothiazol-3(2H)-one 1,1-dioxide]", "Ki": 0.027}, {"molecule": "CC(C)c1cc(O)cc2c1C(=O)N(COc1cc(C(F)(F)F)nn1-c1ccc(Cl)cc1)S2(=O)=O", "note": "[39 (a), 4-isopropyl-6-hydroxy-2-[1-(4-chlorophenyl)-3-trifluoromethylpyrazol-5-yl-oxymethyl]-1,2-benzisothiazol-3(2H)-one 1,1-dioxide]", "Ki": 1.9}, {"molecule": "CCN(CC)CCN(C)C(=O)c1cc(OCN2C(=O)c3c(C(C)C)cc(OC)cc3S2(=O)=O)n(-c2ccccc2)n1", "note": "[31 (b)]", "Ki": 0.143}, {"molecule": "COc1cc(C(C)C)c2c(c1)S(=O)(=O)N(COc1cc(C(F)(F)F)nn1-c1ccccc1)C2=O", "note": "[Example 3, 4-isopropyl-6-methoxy-2-(1-phenyl-3-trifluoromethylpyrazol-5-yl-oxymethyl)-1,2-benzisothiazol-3(2H)-one 1,1-dioxide]", "Ki": 0.068}, {"molecule": "COc1cc(C(C)C)c2c(c1)S(=O)(=O)N(COc1cc(C)nn1-c1ccccc1)C2=O", "note": "[4 (b), 4-isopropyl-6-methoxy-2-(1-phenyl-3-methylpyrazol-5-yl-oxymethyl)-1,2-benzisothiazol-3(2H)-one 1,1-dioxide]", "Ki": 0.44}, {"molecule": "COc1cc(C(C)C)c2c(c1)S(=O)(=O)N(COc1cc(C(F)(F)F)nn1-c1cccc(Cl)c1)C2=O", "note": "[51 (b), 4-isopropyl-6-methoxy-2-[1-(3-chlorophenyl)-3-trifluoromethylpyrazol-5-yl-oxymethyl]-1,2-benzisothiazol-3(2H)-one 1,1-dioxide]", "Ki": 0.13}, {"molecule": "COc1cc(C(C)C)c2c(c1)S(=O)(=O)N(COc1ccnn1-c1ccccc1)C2=O", "note": "[6 (c), 4-isopropyl-6-methoxy-2-(1-phenylpyrazol-5-yl-oxymethyl)-1,2-benzisothiazol-3(2H)-one 1,1-dioxide]", "Ki": 0.145}, {"molecule": "COc1cc(C(C)C)c2c(c1)S(=O)(=O)N(COc1cc(C(=O)O)nn1-c1ccccc1)C2=O", "note": "[Example 21, 4-isopropyl-6-methoxy-2-[1-phenyl-3-(carboxy)pyrazol-5-yl-oxymethyl]-1,2-benzisothiazol-3(2H)-one 1,1-dioxide]", "Ki": 0.31}, {"molecule": "CC(C)c1cc(OCCC(C)(C)C(=O)O)cc2c1C(=O)N(COc1cc(C(F)(F)F)nn1-c1ccccc1)S2(=O)=O", "note": "[38 (d)]", "Ki": 0.18}, {"molecule": "COc1cc(C(C)C)c2c(c1)S(=O)(=O)N(COc1cc(C#N)nn1-c1ccc(Cl)cc1Cl)C2=O", "note": "[50 (b), 4-isopropyl-6-methoxy-2-[1-(2,4-dichlorophenyl)-3-cyanopyrazol-5-yl-oxymethyl]-1,2-benzisothiazol-3(2H)-one 1,1-dioxide]", "Ki": 0.058}, {"molecule": "COc1ccc(COC(=O)c2ccc(COc3cc(C(C)C)c4c(c3)S(=O)(=O)N(COc3cc(C(F)(F)F)nn3-c3ccccc3)C4=O)o2)cc1", "note": "[42 (b)]", "Ki": 0.081}, {"molecule": "CCOc1cc(OCC)c2c(c1)S(=O)(=O)N(COc1cc(C(F)(F)F)nn1-c1ccccc1)C2=O", "note": "[Example 47, 4,6-diethoxy-2-[1-phenyl-3-trifluoromethylpyrazol-5-yl-oxymethyl]-1,2-benzisothiazol-3(2H)-one 1,1-dioxide]", "Ki": 0.5}, {"molecule": "COc1cc(C(C)C)c2c(c1)S(=O)(=O)N(COc1cc(C(F)(F)F)nn1-c1cccc(C(F)(F)F)n1)C2=O", "note": "[36 (b), 4-isopropyl-6-methoxy-2-[1-(6-trifluoromethyl-2-pyridyl)-3-trifluoromethylpyrazol-5-yl-oxymethyl]-1,2-benzisothiazol-3(2H)-one 1,1-dioxide]", "Ki": 0.029}]}]}
